Results as given in patent US20100144779A1, “Marine Alkalod Makaluvamines and Derivatives Thereof” (THE UAB RESEARCH FOUNDATION, priority 2007, published 2010).
Read-outs that look alike come from different tables or passages of the source.

Legend:
[1] = test system: MDA-MB-468; assay: XTT cytotoxicity assay; type: cell-based, human; conditions: average ± standard deviation of 2-4 independent assays, read-out: Inhibition of Cancer Cell Proliferation (IC50) MDA-MB-468
Description: (§1) In initial experiments, compounds 4a-g and 7c-g were evaluated for their cytotoxicity against human breast cancer cell lines MCF-7 and MDA-MB-468 and human colon cancer cell line HCT-116. The makaluvamine compounds provided in Table 2 were also evaluated for their cytotoxicity against human breast cancer cell lines MCF-7. Compound nos. 8 and 27-33 were not evaluated in this experiment. Cells were obtained from ATCC (Manassas, Va.). For each derivative the IC50 value was determined using data generated from 2-4 independent tetrazolium-based (XTT) cytotoxicity assays (R & D Systems Inc., Minneapolis, Minn.) according to the manufacturer's instructions. […] MCF-7, MDA-MD-468 and HCT-116 cells were grown at 37 degrees C. in a humidified atmosphere with complete growth media supplemented with fetal bovine serum. Growth media was changed 2-3 times per week as required.

[2] = test system: MCF-7; assay: XTT cytotoxicity assay; type: cell-based, human; conditions: XTT; average ± standard deviation of 2-4 independent assays; read-out: Inhibition of Cancer Cell Proliferation (IC50) MCF-7
Description: as §1

[3] = test system: HCT-116; assay: XTT cytotoxicity assay; type: cell-based, human; conditions: average ± standard deviation of 2-4 independent assays, read-out: Inhibition of Cancer Cell Proliferation (IC50) HCT-116
Description: as §1

[4] = test system: p21; assay: Protein expression, Western blot in MCF-7 cells; type: cell-based, human; conditions: 1 μM, 6 h (FIG. 4A)
Description: (§2) In FIG. 4A, MCF-7 cells were exposed to 1 μM concentration of the indicated compounds for 6 hours. Western blots were probed with antibodies specific for the proteins indicated. Numbers below each lane show densitometry readings for each lane as compared to control. […] Western blots were probed with antibodies specific for the proteins indicated.
(§3) To determine the disclosed compounds effect on protein expression in human breast cancer cells, cultured MCF-7 cells were exposed to various concentrations of the test compounds for 6 h (FIG. 4A) or 24 h (FIG. 4B). Cell lysates were fractionated with identical amounts of protein by SDS-PAGE and transferred to Bio-Rad trans-Blot nitrocellulose membranes (Bio-Rad Laboratories, Hercules, Calif.). The nitrocellulose membrane was incubated in blocking buffer (Tris-buffered saline containing 0.1% Tween 20 and 5% nonfat milk) for 1 h at room temperature, then with the appropriate primary antibody overnight at 4° C. or 2 h at room temperature with gentle shaking. Finally, the membrane was washed three times with the washing buffer (Tris-buffered saline containing 0.1% Tween 20) for 15 min, incubated with goat anti mouse/rabbit IgG-horseradish peroxidase-conjugated antibody (Bio-Rad) for 1 h at room temperature, and washed again (in triplicate). The protein of interest was detected by enhanced chemiluminescence reagents from PerkinElmer LAS, Inc (Boston, Mass.).

[5] = test system: MDM2; assay: Protein expression, Western blot in MCF-7 cells; type: cell-based, human; conditions: for expression of MDM2: 1 μM, 6 h (FIG. 4A)
Description: as §2, §3

[6] = test system: p53; assay: Protein expression, Western blot in MCF-7 cells; type: cell-based, human; conditions: 1 μM, 6 h (FIG. 4A)
Description: as §2, §3

[7] = test system: A549; assay: Cell cycle progression (propidium iodide, flow cytometry); type: cell-based, human; conditions: 48 hr; for G1 / G2/M / S: A549; for cell cycle arrest: lung cancer A549, dose-dependent
Description: (§4) To determination of the effects of the disclosed compounds on the cell cycle, 2-3×10^5 cells were exposed to the test compounds (0-5 μM) and incubated for 48 hr prior to analysis (Table 6). Cells were trypsinized, washed with PBS and fixed in 1.5 mL 95% ethanol at 4° C. overnight, followed by incubation with RNAse and staining with propidium iodide (Sigma). The DNA content was determined by flow cytometry.

[8] = test system: H1299; assay: as above; type: cell-based, human; conditions: 48 hr; for G1 / G2/M / S: H1299; for cell cycle arrest: lung cancer H1299, dose-dependent
Description: as §4

[9] = test system: different cancer cell lines; assay: Induction of apoptosis (annexin V-FITC); type: cell-based, human; conditions: annexin V-FITC/PI; 0.1-25 μM, 48 hr; effect in the 1-10 μM range
Description: Cells in early and late stages of apoptosis were detected with an annexin V-FITC apoptosis detection kit from BioVision (Mountain View, Calif.). In brief, cells were exposed to the test compounds (0, 0.1, 1, 10, 25 μM) and incubated for 48 hr prior to analysis. Media and cells were collected and washed with serum-free media. Cells were then re-suspended in 500 μL of Annexin V binding buffer followed by addition of 5 μL Annexin VFITC and 5 μL of propidium iodide (PI). The samples were incubated in the dark for 5 min at room temperature prior to analysis. […] Cells that were positive for Annexin V-FITC alone (early apoptosis) and Annexin V-FITC and PI (late apoptosis) were counted.

[10] = test system: female, athymic nude mice; conditions: 8, 20 or 40 mg/kg intra-peritoneally, 1 time per week for 3 weeks
Description: To evaluate the potential toxicity of the makaluvamine compounds disclosed, compound 4c was identified for testing in a mouse model. […] Four groups of 5 female, athymic nude mice (Federick Cancer Research, Rockville, Md.) were injected intra-peritoneally, at doses of 8, 20 or 40 mg/kg of compounds 4c (treatment group) or vehicle only (control group). […] Compound 4c was injected at its respective dose in a 200 μl volume of saline:DMSO (100 μl:100 μl). The vehicle only group was injected with 200 μl saline:DMSO. Injections were given 1 time per week for 3 weeks. […] Mice in each groups were evaluated for survival and weight gain/loss during the treatment period.

[11] = test system: U87MG; assay: MTT growth inhibition assay; type: cell-based, human; conditions: cancer cell, 72 hr, read-out: Growth inhibitory activity (IC50)
[12] = test system: MCF7; assay: Cell cycle progression (propidium iodide, flow cytometry); type: cell-based, human; conditions: 48 hr; for G1 / G2/M / S: MCF7
Description: as §4

SMILES | IC50 [1] | IC50 [2] | IC50 [3] | expression of p21 [4] | expression of MDM2 [5] | expression of p53 [6] | G1 ([7]; 0.1 μM) | G2/M ([7]; 0.1 μM) | S ([7]; 0.1 μM) | G1 ([7]; 1 μM) | G2/M ([7]; 1 μM) | S ([7]; 1 μM) | G1 ([7]; 5 μM) | G2/M ([7]; 5 μM) | S ([7]; 5 μM) | cell cycle arrest [7] | G1 ([8]; 0.1 μM) | G2/M ([8]; 0.1 μM) | S ([8]; 0.1 μM) | G1 ([8]; 1 μM) | further results
CNC1=CC2=NCCc3c[nH]c(c32)C1=O [Compound 4a] | 400 ± 50 nM | 1300 ± 100 nM | 2500 ± 1300 nM | – | – | – | – | – | – | – | – | – | – | – | – | – | – | – | – | – | –
O=C1C(NCc2ccccc2)=CC2=NCCc3c[nH]c1c32 [Compound 4c] | 300 nM | 1000 nM | 1300 ± 200 nM | decreased the expression | inhibited the expression | increased the expression | 60.23 | 19.41 | 20.37 | 58.62 | 19.85 | 21.53 | 47.18 | 30.35 | 22.48 | cell cycle arrest in the G2/M phase | 55.27 | 26.89 | 17.84 | 51.18 | G2/M ([8]; 1 μM): 29.35; S ([8]; 1 μM): 19.47; G1 ([8]; 2 μM): 30.46; G2/M ([8]; 2 μM): 49.58; S ([8]; 2 μM): 19.96; cell cycle arrest [8]: cell cycle arrest in the G2/M phase; induction of apoptosis [9]: significant induction of apoptosis; weight changes between treatment groups [10]: No significant weight changes; weight gain/loss during the treatment period [10]: all mice gained weight; survival ([10]; observed 21 days): 100%; IC50 [11]: 2880 nM
O=C1C(NCCc2ccccc2)=CC2=NCCc3c[nH]c1c32 [Compound 4d] | 300 nM | 1700 ± 500 nM | 3900 ± 1200 nM | increased the expression | increased the expression | increased the expression | – | – | – | – | – | – | – | – | – | – | – | – | – | – | IC50 [11]: 4280 nM
O=C(O)C(F)(F)F.O=C1C(NCCc2ccc3c(c2)OCO3)=CC2=NCCc3c[nH]c1c32 [Compound 6] | – | – | – | – | – | increased the expression | 58.66 | 20.85 | 20.50 | 58.59 | 20.37 | 21.04 | 50.88 | 23.36 | 25.76 | cell cycle arrest in the G2/M phase | 53.99 | 30.73 | 15.28 | 57.20 | G2/M ([8]; 1 μM): 27.57; S ([8]; 1 μM): 15.22; G1 ([8]; 5 μM): 35.29; G2/M ([8]; 5 μM): 41.28; S ([8]; 5 μM): 23.43; cell cycle arrest [8]: cell cycle arrest in the G2/M phase; IC50 ([11]; Homo sapiens, U-87 MG): 5640 nM
COc1ccc(CCNC2=CC3=NCCc4c[nH]c(c43)C2=O)cc1OC.O=C(O)C(F)(F)F [Compound 20] | – | – | – | decreased the expression | inhibited the expression | decreased the expression | – | – | – | – | – | – | – | – | – | – | – | – | – | – | IC50 ([11]; Homo sapiens, U-87 MG): 3040 nM
O=C(O)C(F)(F)F.O=C1C(NCc2ccc(F)cc2)=CC2=NCCc3c[nH]c1c32 [Compound 28] | – | – | – | decreased the expression | inhibited the expression | decreased the expression | 59.91 | 20.22 | 19.87 | 57.88 | 20.14 | 21.98 | 46.78 | 25.07 | 28.14 | cell cycle arrest in the S phase | 54.23 | 25.17 | 20.60 | 46.88 | expression level of MDM2 ([5]; 24 h (FIG. 4B)): decreased; G2/M ([8]; 1 μM): 31.82; S ([8]; 1 μM): 21.31; G1 ([8]; 2 μM): 31.52; G2/M ([8]; 2 μM): 36.36; S ([8]; 2 μM): 32.11; cell cycle arrest [8]: cell cycle arrest in the S phase; G1 ([12]; 0.1 μM): 75.10; G2/M ([12]; 0.1 μM): 17.53; S ([12]; 0.1 μM): 7.37; G1 ([12]; 0.5 μM): 51.97; G2/M ([12]; 0.5 μM): 20.17; S ([12]; 0.5 μM): 27.86; G1 ([12]; 1 μM): 53.96; G2/M ([12]; 1 μM): 16.21; S ([12]; 1 μM): 29.82; cell cycle arrest ([12]; breast cancer (MCF-7), dose-dependent, 0-5 μM): cell cycle arrest in the S phase; induction of apoptosis [9]: significant induction of apoptosis; IC50 ([11]; Homo sapiens, U-87 MG): 1710 nM
